Laboratory results as given in patent US20260265771A1, “METHODS OF INCREASING THE REGENERATION EFFICIENCY IN PLANTS” (Institute of Genetics and Developmental Biology Chinese …, priority 2022, published 2026).
“Also recorded” adds a separate entry of the source.

How the values were obtained:
wheat = assay: Root and shoot growth of wheat; type: in vivo; conditions: 100 nM TaREF1 vs absence
From the text: (a) photos of wheat grown in the presence of 100 nm TaREF1, or in the absence of TaREF1 (mock). (b) primary root length in wheat grown in the presence of 100 nm TaREF1, or in the absence of TaREF1 (mock). (c) shoot length of wheat grown in the presence of 100 nm TaREF1, or in the absence of TaREF1 (mock).
The wheat SIPEP (REF1) orthologue (TaREF1) was investigated to establish whether REF1 can increase the regenerative capacity in wheat.

[1] = system: Chinese Spring and JM22 wheat; assay: Callus formation of wheat immature embryos on CIM; type: cell-based; conditions: exogenous TaREF1
Experimental: (a) photos of Chinese Spring wheat grown in the presence or 0 nM, 0.01 nM or 0.1 nM TaREF1. (b) immature embryos of Chinese Spring were cultured on CIM containing indicated concentrations of TaREF1, and callus phenotype was scored at 14 days after incubation on CIM. Callus formation capacity was represented by the percentage of immature embryo explants with regenerated embryonic calli. Data are mean±SD of three independent experiments.
(§1) TaREF1 was also shown to increase the callus formation capacity of Chinese spring wheat when applied exogenously (FIG. 43) and JM22 wheat (FIG. 54).

[2] = system: Chinese Spring, Kn199 and JM22 wheat; assay: Shoot regeneration of wheat; type: cell-based
Experimental: (a) photos of Kn199 wheat grown in the presence of 0.01 nM or 1 nM TaREF1 or absence of TaREF1 (mock). (b) photos of Kn199 wheat grown in the presence of 0.01 nM or 1 nM TaREF1 or absence of TaREF1.
as §1
Shoot regeneration frequency was established by calculating the average number of shoots, in the context of the present invention shoot regenerative capacity refers to the number of shoots per explant in each condition.

mature seeds of ZH11 = assay: Callus formation of rice mature seeds on CIM; type: cell-based, Oryza sativa; conditions: for callus formation capacity, increase: 20 days
Experimental: Mature seeds of ZH11 were cultured on CIM containing indicated concentrations of OsREF1. (a) photos of ZH11 grown in presence of 1 nM and 10 nM OsREF1 or in the absence of OsREF1 (mock). (b) callus phenotype was scored 20 days after incubation on CIM. Callus formation capacity was represented by the percentage of mature seed explants with regenerated embryonic calli. Data are mean±SD of three independent experiments.
Mature seeds of ZH11 were cultured on CIM containing indicated concentrations of OsREF1 (1 nM and 10 nM). As shown in FIG. 27A calluses formed that were larger in the presence of OsREF1 than in the absence of OsREF1.

[3] = system: ZH11, Nipponbare and 9311 rice; assay: Shoot regeneration of rice on SIM; type: cell-based, Oryza sativa; conditions: for shoot regeneration: SIM, 10 nM; for shoot regeneration capacity, increase: 10 nM OsREF1 vs absence
Experimental: ZH11 was cultured on SIM containing indicated concentrations of OsREF1. (a) photos of ZH11 grown in presence of 0 nM and 10 nM OsREF1. (b) shoot regeneration capacity of ZH11 grown in with either 0 nM or 10 nM OsREF1.
Nipponbare was cultured on SIM containing indicated concentrations of OsREF1. (a) photos of nipponbare grown in presence of 0 nM and 10 nM OsREF1. (b) shoot regeneration capacity of nipponbare grown in with either 0 nM or 10 nM OsREF1.
9311 rice was cultured on SIM containing indicated concentrations of OsREF1. (a) photos of 9311 rice grown in presence of 0 nM and 10 nM OsREF1. (b) shoot regeneration capacity of 9311 rice grown in with either 0 nM or 10 nM OsREF1.
Shoot regeneration was investigated in ZH11 and Nipponbare Japonica rice as well as 9311 indica rice. OsREF1 promoted shoot generation in all three of these rice varieties.

[4] = system: wild allotetraploid rice (L-04); assay: Growth (primary root length) of wild allotetraploid rice; type: in vivo; conditions: L-04, 10 nM OsREF1 vs mock
Experimental: L-04 rice was grown in the presence of 10 nM OsREF1 or in the absence of OsREF1 (mock). (a) photos of L-04 rice grown in presence the of 10 nM OsREF1 or absence of OsREF1 (mock). (b) primary root length of L-04 rice grown in the presence of 10 nM OsREF1 or absence of OsREF1 (mock).

[5] = system: wild allotetraploid rice (L-04); assay: Shoot regeneration of wild allotetraploid rice; type: cell-based
Experimental: (a) images of L-04 rice grown in the presence of 10 nM OsREF1 or absence of OsREF1 (mock). (b) regeneration frequency of L-04 rice grown in the presence of 10 nM OsREF1 or absence of OsREF1.

[6] = system: seeds of wild allotetraploid rice L-04; assay: Callus formation of wild allotetraploid rice seeds on CIM; type: cell-based; conditions: for callus formation capacity, increase: vs absence
Experimental: L-04 rice was grown in the presence of 10 nM or 1 nM OsREF1 or in the absence of OsREF1 (mock). (a) photos of L-04 rice grown in presence the of 10 nM, 1 nM OsREF1 or absence of OsREF1 (mock). (b) callus formation capacity of L-04 rice grown in the presence of 10 nM, 1 nM OsREF1 or absence of OsREF1 (mock).
Seeds of wild allotetraploid rice L-04 were cultured on CIM containing indicated concentrations of OsREF1 (1 nM and 10 nM) for 20 days.

[7] = system: leaves of peach cultivar GF677; assay: Callus formation of peach leaves on CIM; type: cell-based
Experimental: (a) photos of peach cultivar GF677 grown on a CIM in the presence of 100 nM PpREF1 and in the absence of PpREF1 (mock). (b) callus formation capacity of peach cultivar […] grown on a CIM in the presence 100 nM PpREF1 and in the absence of PpREF1 (mock) after 24 days. Callus formation capacity was represented by the percentage of leaves explants with regenerated embryonic calli. Data are mean±SD of three independent experiments.
Leaves of peach cultivar GF677 were cultured on CIM containing indicated concentrations of PpREF1, and callus phenotype was scored at 24 days after incubation on CIM. Callus formation capacity was represented by the percentage of leaves explants with regenerated embryonic calli. Data are mean±SD of three independent experiments. Callus formation capacity was increased by 10-fold in peach cultivar GF677 leaves grown in the presence of 100 nM PpREF1 compared to leaves grown in the absence of PpREF1.

[8] = system: hypocotyl explants of cotton; assay: Callus formation of cotton hypocotyl explants on CIM; type: cell-based
Experimental: (a) photos of cotton grown in the presence of 0.1 nM, 1 nM 10 nM, 100 nM 500 nM GaREF1 or absence of GaREF1 (mock), (b) Hypocotyl explants of cotton were cultured on callus-inducing medium (CIM) containing indicated concentrations of GaREF1, and callus phenotype was scored at 14 days after incubation. Box plots represent the distribution of projected callus area. The projected area of callus was quantified by Image J. Individual values (black dots) are shown and error bars represent SD from three independent experiments. ***P<0.001, **P<0.01, *P<0.05 (Student's t-test).
The cotton SIPEP (REF1) orthologue (GaREF1) was investigated to establish its effect on cotton regenerative capacity.

sunflower explants = assay: Shoot regeneration of sunflower cotyledon explants; type: cell-based
Experimental: (A) The shoot regenerative capacity was represented by the relative frequency of explants with the regenerated shoots. (B) The shoot regenerative capacity was represented by the number of explants with different number of regenerated shoots. Bars show mean±SD. ***P<0.001, **P<0.01, *P<0.05 (Student's t-test). (C) photos of sunflower plants grown in the presence of 1 nM HaREF1, 10 nM HaREF1 or absence of HaREF1 (mock).
The sunflower SIPEP (REF1) orthologue (HanREF1) was investigated to establish its effect on sunflower regenerative capacity.
For the regeneration protocol we referred to Radonic et al., 2015. The explant used in the sunflower regeneration assay was cotyledon.
Shoot regeneration frequency was established by calculating the average number of shoots, in the context of the present invention shoot regenerative capacity refers to the number of shoots per explant in each treatment.

[9] = system: young embryos of B104 and Chang 7-2; assay: Shoot regeneration of maize young embryos; type: cell-based
Experimental: Young embryos of B104 and Chang 7-2 were treated with 0, 0.1 or 1 nM of ZmREF1. For both B-104 and Chan 7-2 shoot regeneration frequency was increased when ZmREF1 was applied, for B-104 this was greatest at 1 nM, however, for Chan 7-2 this was greatest at 0.1 nM, as shown in FIG. 52.

pepper roots = assay: Root hair formation in pepper; type: in vivo, Capsicum annuum; conditions: 0, 10 and 100 nM CaREF1
From the text: The pepper SIPEP (REF1) orthologue (CaREF1) was investigated to establish whether CaREF1 can increase the regenerative capacity of pepper (Capsicum annuum).

[10] = system: pepper cotyledon explants; assay: Callus formation of pepper cotyledon explants on CIM; type: cell-based, Capsicum annuum; conditions: CIM, 0, 1 and 10 nM CaREF1
Experimental: Cotyledon explants were cultured on callus-inducing medium (CIM) containing indicated concentrations of CaREF1. (a) photos of cotelydon explants grown with 0 nM, 1 nM and 10 nM CaREF1. (b) relative callus area of cotelydon explants grown with 0 nM, 1 nM and 10 nM CaREF1. Box plots represent the distribution of projected callus area. The projected area of callus was quantified by Image J. Individual values (black dots) are shown and error bars represent SD from three independent experiments. **P<0.01, *P<0.05 (Student's t-test).

## AVRRPRPPGNPREGRGGGGGSHN (listed as Triticum aestivum) [TaREF1]
wheat
  root length: increased; also recorded: promotes root and shoot growth
  shoot length: increased; also recorded: promotes root and shoot growth
[1]; Chinese spring wheat
  callus formation capacity: increase
[1]; JM22 wheat
  callus formation capacity: increase; also recorded: promotes callus formation
[2]; Chinese Spring wheat
  shoot regeneration: promotes shoot regeneration
[2]; JM22 wheat
  shoot regeneration: promotes shoot regeneration
[2]; Kn199 wheat
  shoot regeneration: promotes shoot regeneration

## DDSKPTGPGAPAEGSGGDGGAIH (listed as Oryza sativa) [OsREF1]
Mature seeds of ZH11; ZH11, 1 nM OsREF1 vs absence
  callus formation capacity, increase: ~ 2 fold
Mature seeds of ZH11; ZH11, 10 nM OsREF1 vs absence
  callus formation capacity, increase: ~ 3 fold
Mature seeds of ZH11; ZH11 Japonica rice, presence vs absence of OsREF1
  callus formation: larger; also recorded: promotes callus formation
[3]; 9311 indica rice
  shoot regeneration: promotes shoot regeneration
[3]; 9311 rice
  shoot regeneration capacity, increase: ~ 3.5 fold
[3]; Nipponbare Japonica rice
  shoot regeneration: promotes shoot regeneration
[3]; Nipponbare rice
  shoot regeneration capacity, increase: ~ 4 fold
[3]; ZH11 Japonica rice
  shoot regeneration: promotes shoot regeneration
[3]; ZH11 rice
  shoot regeneration capacity, increase: ~ 4 fold
[4]
  growth: promotes the growth
  primary root length: significantly increased
[5]; L-04, 10 nM OsREF1 vs absence
  shoot regeneration frequency, increase: ~ 12.2 fold
[5]; L-04, 10 nM OsREF1 vs mock
  shoot regeneration: promotes shoot regeneration
[6]; L-04, 1 nM OsREF1, 20 days
  callus formation capacity, increase: ~ 7.4 fold
[6]; L-04, 10 nM OsREF1, 20 days
  callus formation capacity, increase: ~ 8.9 fold
[6]; L-04, 1 or 10 nM OsREF1 vs mock
  callus formation: promotes callus formation

## KRPRITLRAARPEISTGSGAQTN (listed as Prunus persica) [PpREF1]
[7]; GF677, 100 nM PpREF1 vs mock
  callus formation: promotes callus formation
[7]; GF677 leaves, 100 nM PpREF1 vs absence, 24 days
  callus formation capacity, increase: 10 fold

## LPMVSLFTPKRPGTSAGSGPQIN (listed as Gossypium arboreum) [GaREF1]
[8]; 0.1-500 nM GaREF1
  relative callus area, concentration dependence: increasing as concentration of GaREF1 is increased
[8]; presence vs absence of GaREF1, 14 days
  relative callus area / callus formation: increased; also recorded: promotes callus formation

## RRLTRRPPPPRGPISSGGGGQTN (listed as Helianthus annuus) [HanREF1]
Sunflower explants; 1 nM HanREF1 vs absence
  shoot regeneration, increase: ~ 2.1 fold
Sunflower explants; 10 nM HanREF1 vs absence
  shoot regeneration, increase: ~ 4.5 fold
Sunflower explants; 1 or 10 nM vs mock
  shoot regeneration: promotes shoot regeneration

## RRPRPRPPDHAREGSGGNGGVHH (Zea mays) [ZmREF1]
[9]; B-104
  concentration with greatest shoot regeneration frequency: 1 nM
[9]; B-104 and Chan 7-2, 0.1 or 1 nM ZmREF1 vs 0
  shoot regeneration frequency: increased; also recorded: promotes shoot regeneration
[9]; Chan 7-2
  concentration with greatest shoot regeneration frequency: 0.1 nM

## TGRRRGRPPSRPGVGRGPPPENN (listed as Capsicum annuum) [CaREF1]
Pepper roots
  root hair formation: promotes root hair formation
[10]
  callus formation: increased; also recorded: promotes callus formation
